# Assay results reported in patent publication US20220280661A1, “GLUCOCORTICOID RECEPTOR RADIOLIGANDS AND METHODS FOR THEIR PREPARATION AND USE” (The Regents of the University of California, priority 2019, published 2022).
# Tests used:
# [1] = test system: plasma protein; assay: Plasma protein binding, rapid equilibrium dialysis, human plasma; format: in vitro ADME
# Method: (§1) Plasma Protein Binding Studies. The rapid equilibrium dialysis (RED) device inserts along with a Teflon base plate (Pierce, Rockford, Ill.) were used for the binding studies. The pH of the human or mouse plasma was adjusted to 7.4 prior to the experiment. DMSO stocks (1 mM) were spiked into the plasma to make a final concentration of 2 μM. The spiked plasma solutions (300 μL) were placed into the sample chamber (indicated by the red ring); and 500 μL of PBS buffer, pH 7.4, was placed into the adjacent chamber. The plate was incubated at 37° C. on an orbital shaker (250 rpm) for 4 hours.
# (§2) After 4 hours, from the RED plate, aliquots (100 μL) were removed from each side of the insert (plasma and buffer) and dispensed into the 96-well plate. Subsequently, 100 μL of blank plasma was added to the buffer samples and 100 μL of blank buffer was added to all the collected plasma samples. 300 μL of quench solution (50% acetonitrile, 50% methanol, and 0.05% formic acid, warmed up at 37° C.) containing internal standards was added to each well. Plates were sealed, vortexed, and centrifuged at 4° C. for 15 minutes at 4000 rpm. The supernatant was transferred to fresh plates for LC/MS/MS analysis. The sample were analyzed on LC/MS/MS using an AB Sciex API 4000 instrument, coupled to a Shimadzu LC-20AD LC Pump system. Analytical samples were separated using a Waters Atlantis T3 dC18 reverse phase HPLC column (20 mm×2.1 mm) at a flow rate of 0.5 mL/min. The mobile phase consisted of 0.1% formic acid in water (solvent A) and 0.1% formic acid in acetonitrile (solvent B).
# (§3) The percentage of test compound bound to protein was calculated by the following equations:
# (§4) % Free=(Concentration in buffer chamber/Concentration in plasma chamber)×100%
# [2] = as above; format: in vitro ADME; conditions: human, plasma, pH 7.4, human plasma
# Method: as §1, §2, §3, §4
# [3] = test system: plasma protein; assay: Plasma protein binding, rapid equilibrium dialysis, mouse plasma; format: in vitro ADME
# Method: as §1, §2, §3, §4
# [4] = as above; format: in vitro ADME; conditions: mouse, plasma, pH 7.4, mouse plasma
# Method: as §1, §2, §3, §4
# [5] = test system: GR; assay: Immunoblot of GR in mouse tissues after JG231 treatment; format: in vivo; conditions: 4 mg/kg/day for three days intraperitoneally
# From the text: GR levels were not impacted in liver, kidneys, or muscle, as predicted based on the radiotracer biodistribution data.
# (§5) The limitations of broad-spectrum GR modulators like corticosteroids are well known, and the severe side effects associated with their long term use (e.g. diabetes mellitus, osteoporosis) motivated drug development campaigns starting in the 1990s to identify safer GR modulators that selectively modulate GR activity (Sundahl, et al. Pharmacol. Ther. 2015, 152, 28-41). […] To test this concept, the biodistribution of ^18F-YJH08 was evaluated in mice after treatment with JG231 (FIGS. 10A and 10B). […] Using the same treatment strategy, mice were subjected to 4 mg/kg/day for three days intraperitoneally, and subsequently treated with ^18F-YJH08. […] In these regions, it appeared that JG231 suppressed radiotracer binding, perhaps indicative of GR degradation. […] Immunoblot studies corroborated the biodistribution data, showing approximately ˜50% reduction in GR expression levels due to JG231 treatment in brown fat, and no change in GR levels from other tissues, for example, kidneys, liver, and muscle (FIG. 10E). This is believed to be the first example of tissue specific GR degradation.
# [6] = test system: GR; assay: Immunoblot of GR in breast cancer cell lines treated with JG231; format: cell-based, human; conditions: 24 hours
# Method: Cells were treated with the indicated dose for 24 hours.
# [7] = test system: GR; assay: 18F-YJH08 PET/biodistribution after JG231 treatment; format: in vivo, mouse; conditions: once daily for 3 days via intraperitoneal injection
# Method: At right is shown a maximum intensity projection of supraspinal BAT and muscle from a representative mouse in either treatment arm. Mice (n=5/treatment arm) were treated with JG231 or vehicle once daily for 3 days via intraperitoneal injection.
# The biodistribution data are representative of two independent experiments.
# as §5, with “This is believed to be the first example of tissue specific GR degradation.” left out
# [8] = duplicate, read-out: % Bound (converted)
# [9] = read-out: % Bound Average (converted)
"% Bound ([1]; human plasma, 2 μM, duplicate)","recovery at 4 h, 2 μM ([1]; plasma (rapid equilibrium dialysis device), pH 7.4, human plasma)","fraction unbound at 4 h, 2 μM [2, 8]","fraction unbound at 4 h, 2 μM [2, 9]","% Bound ([3]; mouse plasma, 2 μM, duplicate)","recovery at 4 h, 2 μM ([3]; plasma (rapid equilibrium dialysis device), pH 7.4, mouse plasma)","fraction unbound at 4 h, 2 μM [4, 8]","fraction unbound at 4 h, 2 μM [4, 9]",SMILES,"GR levels in kidneys, liver, and muscle [5]",reduction in GR expression levels in brown fat [5],"GR degradation (immunoblot), MCF7 ([6]; MCF7 cells)","GR degradation (immunoblot), MDA MB 231 ([6]; MDA MB 231 cells)",effect on ^18F-YJH08 tissue uptake [7]
64.56%,104%,0.354,0.354,78.25%,106%,0.223,0.22,CC(C)NCC(O)COc1cccc2ccccc12 (stereo not shown) [Propranolol],,,,,
,,,,,,,,"CCn1c(=O)/c(=C2\Sc3cc(Cl)ccc3N2C)s/c1=C\c1scc[n+]1Cc1ccc(Br)s1.[Cl-] [JG231, 3-((5-bromothiophen-2-yl)methyl)-2-((Z)-((E)-5-(6-chloro-3-methylbenzo[d]thiazol-2(3H)-ylidene)-3-ethyl-4-oxothiazolidin-2-ylidene)methyl)thiazol-3-ium chloride]",no change,~50%,degrades GR,degrades GR,suppressed radiotracer uptake exclusively in the supraspinal brown fat pad
